Measurements taken from patent publication US7419984B2, “Pyrimidines and uses thereof” (Cell Therapeutics, Inc., priority 2002, dated 2008).

Biological target: T1, human LPAAT-β (Homo sapiens, UniProt O15120)
T1 construct: the full-length human LPAAT-β cDNA was amplified by PCR; poly-histidine tag (N); made in house; host or cells: Sf9 insect cells (baculovirus, pFastBac HTc); the membrane fraction was used as the enzyme
T1 sequence (O15120 24-278): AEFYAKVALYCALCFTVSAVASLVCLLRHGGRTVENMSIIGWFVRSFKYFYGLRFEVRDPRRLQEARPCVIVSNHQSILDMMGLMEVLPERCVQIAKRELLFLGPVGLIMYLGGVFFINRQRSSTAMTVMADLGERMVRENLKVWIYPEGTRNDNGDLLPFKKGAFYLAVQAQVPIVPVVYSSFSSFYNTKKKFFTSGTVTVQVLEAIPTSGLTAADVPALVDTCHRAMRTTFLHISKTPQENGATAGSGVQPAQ
Assay: LPAAT-β cell-free assay
Format: biochemical
Conditions: Sf9 cell membrane overexpressing recombinant LPAAT-β
Source text: For the construction of Baculovirus expression vectors, the full-length human LPAAT-β cDNA was amplified by PCR from the DNA template pCE9.LPAAT-β (West et al., DNA Cell Bid. 16.691-701 (1997)) using the primers 5′-[…] […] […] […]-3′ (olpb1F; SEQ ID NO:1) and 5′-[…] […] […]-3′ (olpb1R; SEQ ID NO:2). The ˜870 bp fragment generated was reamplified by PCR using the primers 5′ […] […] […] […] ATC-3′ (olpb2F; SEQ ID NO:3) and 5′-[…] […] […]-3′ (olpb1R; SEQ ID NO:2). The ˜890 bp fragment generated was then cleaved with Sal I and Xba I for insertion into pFastBac™ HTc vector (Life Technologies, Gaithersberg, M.d.) between the Sal I and Xba I sites for the generation of the plasmid pFB.LPAAT-β. This plasmid was then transformed into E. coli DH10Bac™ (Life Technologies, Gaithersberg, M.d.) for the generation of recombinant Bacmid DNA for transfection in HighFive (Invitrogen, San Diego, Calif.) or SF9 insect cells for the production of recombinant Baculovirus stocks using the protocol described in the Bac-to-Bac® Baculovirus Expression System (Life Technologies, Gaithersberg, M.d.), a eukaryotic expression system for generating recombinant baculovirus through site-specific transposition in E. coli. Viral stocks harvested from the transfected cells can then be used to infect fresh insect cells for the subsequence expression of LPAAT-β fusion protein with a poly-histidine tag and a myc-epitope near its N-terminus. The membrane fraction from these Sf9 cells would be the source of LPAAT enzyme.
For the preparation of membranes from Sf9 Cells, all steps are performed on ice or at 4° C. Sf9 cell pellets (˜10^8 cells) were thawed and resuspended in 1-2 ml of buffer A (20 mM Hepes, pH 7.5, 1 mM DTT, 1 mM EDTA, 20% w/v glycerol, 1 mM Benzamidine, 1 μg/ml soybean trypsin inhibitor (SBTI), 1 μug/ml pepstatin A) w/o DTT but with 1 mM Pefabloc. The cells were lysed by sonication using a Branson Sonifier at output=2, duty cycle=2, 10 pulses each at 10 s. with the tip of small sonicator probe submerged but not touching the walls. DTT was then added to 1 mM from a 1 M stock. The samples were centrifuged at 1500 rpm for 5 min. The low speed supernatant was saved and centrifuged (TLA 100.3 rotor, polycarbonate tubes, 2 ml/tube or 1.5 ml/tube minimum) at 100000×g for 1 hr. The high speed pellet was resuspend in Buffer A with a probe sonicator (10 pulses @ output #2 and duty cycle 20%) as a source of LPAAT enzyme.
LPAAT-β catalyzes the transfer of an acyl group from a donor such as acyl-CoA to LPA. The transfer of the acyl group from acyl-CoA to LPA leads to the release of free CoA, which can be reacted with the thiol reagent, 5,5′-dithiobis(2-nitrobenzoic acid) (DTNB). The reaction between DTNB and the free sulfhydryl group from CoA generates a yellow-colored product, 3-carboxylato-4-nitrothiophenolate (CNP), that absorbs at 413 nm. LPAAT-β derived from Sf9 cell membrane overexpressing LPAAT-β were resuspended in HEPES saline buffer (20 mM HEPES pH 7.5, 150 mM NaCl), 1 mg/ml BSA and 72 μl aliquots were distributed into 96-well microtiter plates. 8 μl of compound of interest at 200 μM dissolved in 100% DMSO was added into each well. […] of 1 mM 18:1-CoA and 1 mM sn-1-18:1 lysoPA was then added to each well to initiate the reaction and allowed to run at room temperature for 25 min. 100 μl of 1 mM DTNB in 100% ethanol was then added to each well to quench the reaction and for color development. The absorbance at 405 nm, measured using a spectrophotometer plate reader, is proportional to the activity of LPAAT-2 in the sample. This colorimetric assay was used for the high throughput screening of LPAAT inhibitors.
The radiometric assay was carried out in Sf9 cell membrane overexpressing LPAAT-β resuspended in HEPES-saline buffer, pH 7.5, 1 mg/ml BSA, 1 mM EDTA and 200 μM [^14C]18:1-CoA and 200 μM sn-1-18:1 lysoPA.

SMILES	IC50 [nM]
CC(=O)c1ccc(Nc2cc(-c3cc(Cl)ccc3C)nc(N)n2)cc1 [Example 123, 1-{4-[2-amino-6-(5-chloro-2-methylphenyl)pyrimidin4-ylamino]phenyl}ethanone]	150
COc1ccc(Cl)cc1-c1cc(Nc2ccc([N+](=O)[O-])cc2)nc(N)n1 [Example 11, 6-(5-Chloro-2-methoxy-phenyl)-N*4*-(4-nitro-phenyl)-pyrimidine-2,4-diamine]	14
CCOc1ccc(Cl)cc1-c1cc(Nc2ccc(-c3cnco3)cc2)nc(N)n1 [Example 66, 6-(5-Chloro-2-ethoxy-phenyl)-N*4*-(4-oxazol-5-yl-phenyl)-pyrimidine-2,4-diamine]	450
Cc1ccc(Cl)cc1-c1cc(Nc2ccc(Br)cc2)nc(N)n1 [Example 30, N*4*-(4-Bromo-phenyl)-6-(5-chloro-2-methyl-phenyl)-pyrimidine-2,4-diamine]	34
Nc1nc(Nc2ccc(Cl)cc2)cc(-c2cc(Cl)ccc2OCC(F)(F)F)n1 [Example 89, N*4*-(4-Chloro-phenyl)-6-[5-chloro-2-(2,2,2-trifluoro-ethoxy)-phenyl]-pyrimidine-2,4-diamine]	100
CCOc1ccc(Cl)cc1-c1cc(Nc2ccccc2Cl)nc(N)n1 [Example 117, 6-(5-Chloro-2-ethoxy-phenyl)-N*4*-(2-chloro-phenyl)-pyrimidine-2,4-diamine]	4900
CCOc1ccc(Cl)cc1-c1cc(Nc2ccc(C)cc2)nc(N)n1 [Example 53, 6-(5-Chloro-2-ethoxy-phenyl)-N*4*-p-tolyl-pyrimidine-2,4-diamine]	95
CCOc1ccc(Cl)cc1-c1cc(Nc2ccc(CO)cc2)nc(N)n1 [Example 44, {4-[2-Amino-6-(5-chloro-2-ethoxy-phenyl)-pyrimidin-4-ylamino]-phenyl}-methanol]	75
Cc1ccc(Cl)cc1-c1cc(Nc2ccc(Cl)c(CO)c2)nc(N)n1 [Example 113, {5-[2-Amino-6-(5-chloro-2-methyl-phenyl)-pyrimidin-4-ylamino]-2-chloro-phenyl}-methanol]	190
COc1ccc(Nc2cc(-c3cc(Cl)ccc3C)nc(N)n2)cc1 [Example 28, 6-(5-Chloro-2-methyl-phenyl)-N*4*-(4-methoxy-phenyl)-pyrimidine-2,4-diamine]	200
CCOc1ccc(Cl)cc1-c1cc(Nc2ccc(CCO)cc2)nc(N)n1 [Example 47, 2-{4-[2-Amino-6-(5-chloro-2-ethoxy-phenyl)-pyrimidin4-ylamino]-phenyl}-ethanol]	28
CNC(=O)c1cc(Nc2cc(-c3cc(Br)ccc3C)nc(N)n2)ccc1Cl [Example 75, 5-[2-Amino-6-(5-bromo-2-methyl-phenyl)-pyrimidin-4-ylamino]-2-chloro-N-methyl-benzamide]	180
CCOc1ccc(Br)cc1-c1cc(Nc2ccc(CCO)cc2)nc(N)n1 [Example 70, 2-{4-[2-Amino-6-(5-bromo-2-ethoxy-phenyl)-pyrimidin-4-ylamino]-phenyl}-ethanol]	29
COc1ccc(Cl)cc1-c1cc(Nc2ccc(Cl)cc2)nc(N)n1 [Example 2, 6-(5-Chloro-2-methoxy-phenyl)-N*4*-(4-chloro-phenyl)-pyrimidine-2,4-diamine]	54
CCOc1ccc(Br)cc1-c1cc(Nc2ccc(C(=O)c3ccccc3)cc2)nc(N)n1 [Example 59, {4-[2-Amino-6-(5-bromo-2-ethoxy-phenyl)-pyrimidin4-ylamino]-phenyl}-phenyl-methanone]	210

Next, values leading:

IC50 [nM]	SMILES
71	Nc1nc(Nc2ccc(Cl)cc2)cc(-c2cc(Br)ccc2OCCN2CCOCC2)n1 [Example 149, 6-[5-Bromo-2-(2-morpholin4-yl-ethoxy)-phenyl]-N*4*-(4-chloro-phenyl)-pyrimidine-2,4-diamine]
240	Nc1nc(Nc2ccc(Cl)cc2)cc(-c2ccccc2Oc2ccccc2)n1 [Example 152, N*4*-(4-Chloro-phenyl)-6-(2-phenoxy-phenyl)-pyrimidin-2,4-diamine]
340	CC(=O)c1ccc(Nc2cc(-c3cccc(Cl)c3)nc(N)n2)cc1 [Example 139, 1-{4-[2-Amino-6-(3-chloro-phenyl)-pyrimidin-4-ylamino]-phenyl}-ethanone]
390	CC(C)Oc1ccc(Br)cc1-c1cc(Nc2ccc(CCO)cc2)nc(N)n1 [Example 141, 2-{4-[2-Amino-6-(5-bromo-2-isopropoxy-phenyl)-pyrimidin-4-ylamino]-phenyl}-ethanol]
5	Nc1nc(Nc2ccc(Cl)cc2)cc(-c2cc(Br)ccc2OCCc2ccccc2)n1 [Example 166, 6-(5-Bromo-2-phenethyloxy-phenyl)-N*4*-(4-chloro-phenyl)-pyrimidine-2,4-diamine]
260	CCOC(=O)c1cccc(Nc2cc(-c3cc(Br)ccc3OC)nc(N)n2)c1 [Example 171, 3-[2-Amino-6-(5-bromo-2-methoxy-phenyl)-pyrimidin4-ylamino]-benzoic acid ethyl ester]
740	CCOc1ccc(Br)cc1-c1cc(Nc2ccc(C(N)=O)cc2)nc(N)n1 [Example 186, 4-[2-Amino-6-(5-bromo-2-ethoxy-phenyl)-pyrimidin4-ylamino]-benzamide]
100	COc1ccc(Br)cc1-c1cc(Nc2ccc(C(F)(F)F)cc2)nc(N)n1 [Example 150, 6-(5-Bromo-2-methoxy-phenyl)-N*4*-(4-trifluoromethyl-phenyl)-pyrimidine-2,4-diamine]
55	COc1ccc(Br)cc1-c1cc(Nc2ccc(CCO)cc2)nc(N)n1 [Example 151, 2-{4-[2-Amino-6-(5-bromo-2-methoxy-phenyl)-pyrimidin-4-ylamino]-phenyl}-ethanol]
3	Nc1nc(Nc2ccc(Cl)cc2)cc(-c2cc(Br)ccc2OCc2ccccc2)n1 [Example 146, 6-(2-Benzyloxy-5-bromo-phenyl)-N*4*-(4-chloro-phenyl)-pyrimidine-2,4-diamine]
1400	CN(C)CCCOc1ccc(Br)cc1-c1cc(Nc2ccc(Cl)cc2)nc(N)n1 [Example 156, 6-[5-Bromo-2-(3-dimethylamino-propoxy)-phenyl]-N*4*-(4-chloro-phenyl)-pyrimidine-2,4-diamine]
79	Nc1nc(Nc2ccc(C(F)(F)F)cc2)cc(-c2cc(Br)ccc2Cl)n1 [Example 189, 6-(5-Bromo-2-chloro-phenyl)-N*4*-(4-trifluoromethyl-phenyl)-pyrimidine-2,4-diamine]
14	COc1ccc(Br)cc1-c1cc(Nc2ccc([N+](=O)[O-])cc2)nc(N)n1 [Example 161, 6-(5-Bromo-2-methoxy-phenyl)-N*4*-(4-nitro-phenyl)-pyrimidine-2,4-diamine]
22	COCCOc1ccc(Br)cc1-c1cc(Nc2ccc(Cl)cc2)nc(N)n1 [Example 143, 6-[5-Bromo-2-(2-methoxy-ethoxy)-phenyl]-N*4*-(4-chloro-phenyl)-pyrimidine-2,4-diamine]
